# Assay results as given in PMC5812813 (Journal of the American Chemical Society, 2018).
# Read-outs that look alike come from different tables or passages of the source.
# Key:
# [1] = target: T1, CYP2C8 (Homo sapiens, UniProt P10632); settings: cited from earlier work
# T1 sequence (P10632 1-490): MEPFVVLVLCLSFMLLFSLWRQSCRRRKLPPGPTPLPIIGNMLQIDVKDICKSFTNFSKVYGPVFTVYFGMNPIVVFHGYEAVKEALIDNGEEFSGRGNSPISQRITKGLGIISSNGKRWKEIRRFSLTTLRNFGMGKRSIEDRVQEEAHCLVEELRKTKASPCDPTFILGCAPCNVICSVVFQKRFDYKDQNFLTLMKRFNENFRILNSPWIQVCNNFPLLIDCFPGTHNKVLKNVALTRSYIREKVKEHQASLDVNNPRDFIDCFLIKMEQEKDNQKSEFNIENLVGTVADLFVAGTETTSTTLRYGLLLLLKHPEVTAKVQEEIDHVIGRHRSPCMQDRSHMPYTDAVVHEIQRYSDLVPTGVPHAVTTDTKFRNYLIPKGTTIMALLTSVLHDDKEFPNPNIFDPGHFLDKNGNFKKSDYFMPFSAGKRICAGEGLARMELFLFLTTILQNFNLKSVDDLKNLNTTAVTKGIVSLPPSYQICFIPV
# [2] = target: T2, CYP2C19 (Homo sapiens, UniProt P33261); settings: cited from earlier work
# T2 sequence (P33261 whole entry): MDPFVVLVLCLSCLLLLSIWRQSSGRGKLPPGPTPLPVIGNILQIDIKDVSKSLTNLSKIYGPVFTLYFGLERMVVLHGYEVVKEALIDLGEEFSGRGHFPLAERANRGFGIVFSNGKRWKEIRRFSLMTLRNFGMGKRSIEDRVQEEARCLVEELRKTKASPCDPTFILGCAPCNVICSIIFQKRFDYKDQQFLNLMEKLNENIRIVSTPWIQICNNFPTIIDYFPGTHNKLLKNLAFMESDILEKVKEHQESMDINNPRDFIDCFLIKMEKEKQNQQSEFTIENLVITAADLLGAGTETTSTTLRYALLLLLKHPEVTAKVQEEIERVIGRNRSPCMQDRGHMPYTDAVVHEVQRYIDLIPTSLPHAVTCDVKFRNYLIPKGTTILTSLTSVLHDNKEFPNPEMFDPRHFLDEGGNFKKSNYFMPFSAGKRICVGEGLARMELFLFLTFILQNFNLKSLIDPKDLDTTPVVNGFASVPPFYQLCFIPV
# [3] = target: T3, CYP2B6 (Homo sapiens, UniProt P20813); settings: cited from earlier work
# T3 sequence (P20813 1-491): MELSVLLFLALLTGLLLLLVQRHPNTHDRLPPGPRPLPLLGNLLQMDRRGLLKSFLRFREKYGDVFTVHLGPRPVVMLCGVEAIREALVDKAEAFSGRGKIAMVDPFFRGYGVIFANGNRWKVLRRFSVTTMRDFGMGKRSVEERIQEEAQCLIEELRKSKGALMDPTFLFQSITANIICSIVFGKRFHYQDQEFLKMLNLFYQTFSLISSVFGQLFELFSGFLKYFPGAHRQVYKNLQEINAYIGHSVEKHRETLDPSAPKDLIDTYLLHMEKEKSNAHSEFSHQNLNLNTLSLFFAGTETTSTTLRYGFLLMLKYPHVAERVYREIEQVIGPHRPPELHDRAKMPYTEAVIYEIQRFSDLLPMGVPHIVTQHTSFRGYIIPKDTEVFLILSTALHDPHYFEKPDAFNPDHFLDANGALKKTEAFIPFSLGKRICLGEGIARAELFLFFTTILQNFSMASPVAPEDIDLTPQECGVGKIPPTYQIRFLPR
# [4] = target: T4, CYP1A (Homo sapiens, UniProt P05177); settings: cited from earlier work
# T4 sequence (P05177 1-516): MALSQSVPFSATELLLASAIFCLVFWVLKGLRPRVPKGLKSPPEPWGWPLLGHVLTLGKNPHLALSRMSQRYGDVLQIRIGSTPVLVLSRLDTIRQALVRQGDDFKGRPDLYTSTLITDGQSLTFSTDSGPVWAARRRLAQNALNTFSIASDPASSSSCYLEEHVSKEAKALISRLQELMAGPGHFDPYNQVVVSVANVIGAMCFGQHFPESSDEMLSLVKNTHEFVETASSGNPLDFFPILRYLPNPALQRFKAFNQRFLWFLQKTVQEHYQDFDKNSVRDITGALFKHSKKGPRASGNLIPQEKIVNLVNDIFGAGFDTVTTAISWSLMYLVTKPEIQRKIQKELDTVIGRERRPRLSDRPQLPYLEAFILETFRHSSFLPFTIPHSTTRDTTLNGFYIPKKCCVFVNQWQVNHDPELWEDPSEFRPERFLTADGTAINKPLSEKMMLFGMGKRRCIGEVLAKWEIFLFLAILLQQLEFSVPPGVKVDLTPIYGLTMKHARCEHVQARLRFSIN
# [5] = target: T5, aspartate aminotransferase (Asp-AT) (Sus scrofa, UniProt P00503); settings: cited from earlier work
# T5 sequence (P00503 2-413): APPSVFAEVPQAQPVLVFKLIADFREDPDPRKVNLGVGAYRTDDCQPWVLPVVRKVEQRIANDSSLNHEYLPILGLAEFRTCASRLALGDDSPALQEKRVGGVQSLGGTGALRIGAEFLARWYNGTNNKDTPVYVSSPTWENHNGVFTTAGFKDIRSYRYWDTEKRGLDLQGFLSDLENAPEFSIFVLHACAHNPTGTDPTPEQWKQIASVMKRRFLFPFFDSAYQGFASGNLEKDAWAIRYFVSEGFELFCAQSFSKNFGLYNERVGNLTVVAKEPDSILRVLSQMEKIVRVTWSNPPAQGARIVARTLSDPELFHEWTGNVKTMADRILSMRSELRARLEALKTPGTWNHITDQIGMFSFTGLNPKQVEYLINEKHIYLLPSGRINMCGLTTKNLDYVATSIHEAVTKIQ
# [6] = test system: hippocampus glucose metabolism; settings: previously tested in similar tests; cited from earlier work
# [7] = target: T6, ornithine aminotransferase (OAT) (Homo sapiens, UniProt P04181); settings: cited from earlier work
# T6 sequence (P04181 36-439 limits assumed): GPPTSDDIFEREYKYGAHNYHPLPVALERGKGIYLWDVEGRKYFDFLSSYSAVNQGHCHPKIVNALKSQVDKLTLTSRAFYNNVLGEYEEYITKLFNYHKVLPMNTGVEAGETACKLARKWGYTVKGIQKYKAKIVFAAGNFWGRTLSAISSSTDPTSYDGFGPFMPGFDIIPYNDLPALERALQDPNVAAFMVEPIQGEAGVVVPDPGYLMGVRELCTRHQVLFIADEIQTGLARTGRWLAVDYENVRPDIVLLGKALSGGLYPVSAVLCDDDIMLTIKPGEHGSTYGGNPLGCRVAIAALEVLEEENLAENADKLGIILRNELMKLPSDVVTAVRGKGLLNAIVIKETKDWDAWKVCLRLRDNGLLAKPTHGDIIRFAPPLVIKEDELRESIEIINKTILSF
# [8] = target: T7, CYP2D6 (Homo sapiens, UniProt P10635); settings: cited from earlier work
# T7 sequence (P10635 whole entry): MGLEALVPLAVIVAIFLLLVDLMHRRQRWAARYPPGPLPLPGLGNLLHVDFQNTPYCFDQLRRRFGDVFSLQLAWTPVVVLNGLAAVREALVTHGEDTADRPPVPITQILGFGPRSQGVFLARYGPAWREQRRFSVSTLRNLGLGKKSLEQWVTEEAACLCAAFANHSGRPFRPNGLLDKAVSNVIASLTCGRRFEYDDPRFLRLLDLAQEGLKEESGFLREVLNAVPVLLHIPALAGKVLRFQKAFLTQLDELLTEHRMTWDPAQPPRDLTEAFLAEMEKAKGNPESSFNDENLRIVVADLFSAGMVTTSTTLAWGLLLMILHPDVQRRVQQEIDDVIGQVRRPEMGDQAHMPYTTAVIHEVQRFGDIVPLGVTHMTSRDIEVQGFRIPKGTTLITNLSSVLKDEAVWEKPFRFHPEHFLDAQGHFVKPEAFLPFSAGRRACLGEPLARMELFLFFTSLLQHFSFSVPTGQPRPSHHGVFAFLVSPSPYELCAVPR
# [9] = target: T8, hERG channel (Homo sapiens, UniProt Q12809); settings: cited from earlier work
# T8 sequence (Q12809 whole entry): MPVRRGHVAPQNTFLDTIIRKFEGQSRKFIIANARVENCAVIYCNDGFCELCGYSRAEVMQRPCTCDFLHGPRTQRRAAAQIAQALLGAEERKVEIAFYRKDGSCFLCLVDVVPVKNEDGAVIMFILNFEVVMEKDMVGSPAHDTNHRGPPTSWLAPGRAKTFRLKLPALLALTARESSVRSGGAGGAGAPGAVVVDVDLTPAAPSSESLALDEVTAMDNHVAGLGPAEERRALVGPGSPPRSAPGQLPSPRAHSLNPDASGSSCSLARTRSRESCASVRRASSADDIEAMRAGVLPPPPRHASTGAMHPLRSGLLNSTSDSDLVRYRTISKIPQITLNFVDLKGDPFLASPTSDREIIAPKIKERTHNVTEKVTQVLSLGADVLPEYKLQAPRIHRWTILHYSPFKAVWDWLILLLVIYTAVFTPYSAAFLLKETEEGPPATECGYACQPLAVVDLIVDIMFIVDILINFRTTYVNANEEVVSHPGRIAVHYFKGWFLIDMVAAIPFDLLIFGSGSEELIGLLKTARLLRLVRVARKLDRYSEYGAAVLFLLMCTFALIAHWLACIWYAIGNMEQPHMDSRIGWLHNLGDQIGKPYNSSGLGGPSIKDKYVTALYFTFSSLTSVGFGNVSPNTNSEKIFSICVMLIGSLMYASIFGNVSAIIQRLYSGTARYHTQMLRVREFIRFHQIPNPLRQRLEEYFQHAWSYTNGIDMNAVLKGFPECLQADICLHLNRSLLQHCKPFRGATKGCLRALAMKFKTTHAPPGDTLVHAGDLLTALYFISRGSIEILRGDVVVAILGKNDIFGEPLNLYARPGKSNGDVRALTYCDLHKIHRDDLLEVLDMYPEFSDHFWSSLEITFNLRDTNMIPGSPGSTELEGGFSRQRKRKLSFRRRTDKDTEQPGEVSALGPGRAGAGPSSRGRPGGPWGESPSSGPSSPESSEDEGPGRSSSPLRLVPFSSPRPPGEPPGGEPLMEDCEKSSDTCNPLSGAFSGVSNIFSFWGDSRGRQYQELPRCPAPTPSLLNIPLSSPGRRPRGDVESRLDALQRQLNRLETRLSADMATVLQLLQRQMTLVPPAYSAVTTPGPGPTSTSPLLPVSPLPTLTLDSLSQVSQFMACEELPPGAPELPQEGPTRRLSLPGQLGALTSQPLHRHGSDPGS
# [10] = test system: alanine aminotransferase (Ala-AT); settings: cited from earlier work
# [11] = test system: infantile spasms; settings: cited from earlier work
# [12] = target: T9, CYP2C9 (Homo sapiens, UniProt P11712); settings: cited from earlier work
# T9 sequence (P11712 whole entry): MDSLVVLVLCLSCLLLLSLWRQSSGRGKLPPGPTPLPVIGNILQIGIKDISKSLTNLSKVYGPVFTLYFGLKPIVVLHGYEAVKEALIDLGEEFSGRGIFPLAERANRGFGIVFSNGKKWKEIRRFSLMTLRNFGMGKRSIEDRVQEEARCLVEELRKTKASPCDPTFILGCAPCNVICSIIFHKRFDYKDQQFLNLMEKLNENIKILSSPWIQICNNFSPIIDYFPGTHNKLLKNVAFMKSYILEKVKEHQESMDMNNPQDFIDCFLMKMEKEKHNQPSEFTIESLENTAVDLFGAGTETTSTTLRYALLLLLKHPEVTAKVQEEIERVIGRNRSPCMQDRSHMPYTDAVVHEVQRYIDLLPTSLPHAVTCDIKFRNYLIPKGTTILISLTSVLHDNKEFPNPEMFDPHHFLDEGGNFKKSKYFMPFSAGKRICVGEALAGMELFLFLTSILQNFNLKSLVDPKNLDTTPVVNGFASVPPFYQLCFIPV
# [13] = test system: CYP3A; settings: cited from earlier work
# [14] = test system: cocaine- or nicotine-induced increases in synaptic dopamine (corpus striatum); format: in vivo, rat
# [15] = Irwin; parameters: species or system mice; settings: mouse, in vivo, po
# [16] = target: T4, CYP1A; assay: CYP1A inhibition; format: in vitro ADME; settings: 10 μM
# [17] = test system: 176 pharmacological targets; assay: Cerep SpectrumScreen; settings: 3 μM
# [18] = target: T2, CYP2C19; assay: CYP2C19 inhibition; format: in vitro ADME; settings: 10 μM
# [19] = test system: CYP3A; assay: CYP3A inhibition; format: in vitro ADME, human; settings: 10 μM
# [20] = target: T8, hERG channel; assay: Inhibition of the hERG channel; format: cell-based; settings: at 10 μM
# [21] = target: T3, CYP2B6; assay: CYP2B6 inhibition; format: in vitro ADME; settings: 10 μM
# [22] = target: T1, CYP2C8; assay: CYP2C8 inhibition; format: in vitro ADME; settings: 10 μM
# [23] = target: T7, CYP2D6; assay: CYP2D6 inhibition; format: in vitro ADME; settings: 10 μM
# [24] = test system: hippocampus glucose metabolism; assay: microPET 18FDG, cocaine-induced increases in glucose metabolism; format: in vivo, rat; settings: 5 before cocaine, statistical parametric mapping, p < 0.00001
# [25] = target: T5, aspartate aminotransferase (Asp-AT); assay: Inhibition of aspartate aminotransferase; format: biochemical
# [26] = test system: alanine aminotransferase (Ala-AT); assay: Inhibition of alanine aminotransferase; format: biochemical
# [27] = target: T9, CYP2C9; assay: CYP2C9 inhibition; format: in vitro ADME; settings: 10 μM
# [28] = Metabolic stability in human liver microsomes; format: in vitro ADME; settings: 1 μM, 90 min assay time, 37 °, LC-MS/MS
# [29] = target: T6, ornithine aminotransferase (OAT); assay: Time- and concentration-dependent inhibition of ornithine aminotransferase; format: biochemical
# [30] = Ames test for mutagenicity
# [31] = test system: cocaine addiction; settings: 9-week double-blind trial; cited from earlier work
# [32] = after long-term administration; cited from earlier work
# [33] = 5 0.1 mg/kg prior to cocaine 10 mg/kg
# [34] = 5 1.0 mg/kg prior to cocaine 10 mg/kg
smiles,measurement,setting,value
"N[C@H]1C[C@@H](C(=O)O)CC1=C(F)F [CPP-115, (1S,3S)-3-amino-4-difluoromethylenyl-1-cyclopentanoic acid]",CYP inhibition or induction,[1],does not inhibit or induce
same,CYP inhibition or induction,[2],does not inhibit or induce
same,CYP inhibition or induction,[3],does not inhibit or induce
same,CYP inhibition or induction,[4],does not inhibit or induce
same,inactivation or inhibition of off-target enzyme,[5],not to inactivate or inhibit
same,block of cocaine-induced hippocampal metabolism,[6],did not completely block
same,Ki,[7],116 µM
same,CYP inhibition or induction,[8],does not inhibit or induce
same,inhibition of the activity of the hERG channel,[9],does not inhibit
same,inactivation or inhibition of off-target enzyme,[10],not to inactivate or inhibit
same,"doses suppressing spasms, lower than those used for vigabatrin",[11],over 100 fold
same,CYP inhibition or induction,[12],does not inhibit or induce
same,CYP inhibition or induction,[13],does not inhibit or induce
"COC(=O)[C@H]1[C@@H](OC(=O)c2ccccc2)C[C@@H]2CC[C@H]1N2C [Cocaine, cocaine, reference compound]",%= (Percent inhibition of cocaine-induced increase in synaptic dopamine),[14]; cocaine 10 mg/kg alone,−36%
same,ST-CB/CB,[14]; cocaine 10 mg/kg alone,2.39 ± 0.21
same,reduction of [11C]-raclopride binding,[14]; cocaine 10 mg/kg alone,36%
"N[C@H]1C=C(C(=O)O)CC1=C(F)F [Compound 5, (S)-3-amino-4-(difluoromethylenyl)cyclopent-1-ene-1-carboxylic acid]",NOAEL,[15],6 mg/kg
same,CYP inhibition or induction,[16],does not inhibit or induce
same,activity at 176 pharmacological targets,[17],no significant activity
same,CYP inhibition or induction,[18],does not inhibit or induce
same,CYP inhibition or induction,[19],does not inhibit or induce
same,inhibition of the activity of the hERG channel,[20],does not inhibit
same,CYP inhibition or induction,[21],does not inhibit or induce
same,CYP inhibition or induction,[22],does not inhibit or induce
same,CYP inhibition or induction,[23],does not inhibit or induce
same,cocaine-induced activation in the hippocampus (18FDG uptake),[24],no activation in the hippocampus was detected
same,time-dependent inhibition,[25],does not cause time-dependent inhibition
same,time-dependent inhibition,[26],does not cause time-dependent inhibition
same,IC50,[26]; reversible inhibition,> 4000 µM
same,CYP inhibition or induction,[27],does not inhibit or induce
same,reduction of [11C]-raclopride binding,[14]; 5 0.01 mg/kg 30 minutes prior to cocaine,20%
same,ST-CB/CB,[14]; 5 0.01 mg/kg 30 minutes prior to cocaine 10 mg/kg,3.01 ± 0.44
same,%= (Percent inhibition of cocaine-induced increase in synaptic dopamine),[14]; 5 0.01 mg/kg prior to cocaine 10 mg/kg,−20%
same,reduction of [11C]-raclopride binding,[14]; 5 0.1 mg/kg prior to cocaine,12%
same,%= (Percent inhibition of cocaine-induced increase in synaptic dopamine),[14]; [33],−12%
same,ST-CB/CB,[14]; [33],3.31 ± 0.52
same,change in [11C]-raclopride binding,[14]; 5 1.0 mg/kg prior to cocaine,no significant change
same,%= (Percent inhibition of cocaine-induced increase in synaptic dopamine),[14]; [34],−5%
same,ST-CB/CB,[14]; [34],3.56 ± 2.11
same,reduction of [11C]-raclopride binding,[14]; 5 1.0 mg/kg prior to cocaine (comparable to control),5%
same,change in [11C]-raclopride binding,[14]; 5 1.0 mg/kg prior to nicotine,no significant change
same,metabolism in human liver microsomes,[28],No metabolism
same,more effective at inhibiting GABA-AT than OAT,[29]; GABA-AT versus OAT,44 times
same,efficiency as an inactivator of OAT relative to CPP-115,[29]; ratio of kinact/KI,9.0 times
same,Ames test for mutagenicity,[30],negative
C=CC(N)CCC(=O)O (stereo not drawn) [vigabatrin],block of cocaine-induced hippocampal metabolism,[6],did not completely block
same,patients achieving abstinence,[31],up to 28%
same,patients with permanent retinal damage,[32],25–40%
